Consider five compounds from patent US7638553B2, “Hydroxamates, their manufacture and use as pharmaceutical agents” (Hoffmann-La Roche Inc., priority 2004, dated 2009).

One assay has as its system HT-29 cells. Description: MTT assay on HT-29 human colon carcinoma cell line. Format: cell-based. The conditions noted are these: MTT assay after 5 days, read-out: IC90 HT29. The procedure:
To show the activity of the compounds according to this invention, their effects on a human colon carcinoma cell line was evaluated using a standard MTT-assay. MTT (3-(4,5-dimethylthiazol-2-yl)-2,5-diphenyl tetrazolium bromide) is widely used for the quantitative determination of cytotoxic effects or in vitro chemosensitivity of tumor cells. The assay is based on the cleavage of the yellow tetrazolium salt (MTT) to purple formazan crystals by metabolic active cells. For details, see Rubinstein, L. V., et al., J. Natl. Cancer Inst. 82 (1990) 1113-1118.
We proceeded as follows: HT-29 cells (human colon carcinoma cell line, ATCC-No. HTB-38) were cultivated in RPMI 1640 medium with GlutaMAX™ I (Invitrogen, Cat-No. 61870-010), 2.5% fetal calf serum (FCS, Sigma Cat-No. F4135 (FBS)), 2 mM glutamine, 100 units/ml penicillin, 100 μg/ml streptomycin (=Pen/Strep from Invitrogen Cat. No. 15140). For the assay the cells were seeded in 384 well plates, 900 cells per well, in the same medium. At the next day, the compounds (dissolved 10 mM in DMSO) were added in various concentrations ranging from 30 μM to 1.5 nM. After 5 days, the MTT assay was done mainly according to the instructions of the manufacturer (Cell proliferation kit I, MTT, from Roche Molecular Biochemicals). In brief: MTT labeling reagent was added to a final concentration of 0.5 mg/ml, added and incubated for 4 hrs at 37° C., 5% CO2. During this incubation time purple formazan crystals are formed. After addition of the solubilization solution (20% Sodium Dodecyl Sulfate (SDS) in 0.02 M HCl) the plates were incubated overnight at 37° C., 5% CO2. After careful mixing, the plates were measured in Victor 2 (scanning multiwell spectrophotometer, Wallac) at 550 nm.
A decrease in number of living cells results in a decrease in the total metabolic activity in the sample. The decrease directly correlates to the amount of purple colour resulting from the solubilization of the purple formazan crystals. Determination of IC90 was done using XL-fit (XLfit software (ID Business Solution Ltd., Guilford, Surrey, UK)).
(In general: Tetrazolium assays rely on reduction of a dye to a coloured formazan, in cell work by metabolically active cells.)

Another assay has as its target T1, recombinant HDAC-1 (Homo sapiens, UniProt Q13547).
T1 construct: made in house; host or cells: HEK 293 cells (ATCC-No. CRL 1573)
Description: HDAC biochemical quench assay. The conditions noted are these: recombinant HDAC-1 purified from HEK 293 cells; 1 μM peptide substrate, 90 min at room temperature. From the text: The function of histone deacetylase (HDAC) is the deacetylation of lysines in e.g. histone H4. A peptide of 17 amino acids derived from histone H4 was labeled with tetramethylrhodamine (TAMRA, fluorophore, Invitrogen) at the C-terminus and QSY-7™ (quencher dye, Invitrogen) at the N-terminus and was used as a substrate (TAMRA—first 17 aa of histone H4—QSY7). Following deacetylation by HDAC, the enzyme Lys C is able to cleave the peptide after lysine. […] Inhibition of HDAC by compounds results in low signals because Lys C could not cleave the substrate and the quench effect persists.
For dose response curves, 10 concentrations were diluted 1:3 starting at 30 μM. 10 μl compound dilution were put into each well of a 384 well plate. 10 μl HDAC were added (recombinant HDAC-1 purified from HEK 293 cells (human embryonic kidney cell line transformed by Adenovirus 5 fragments, ATCC-No. CRL 1573); enzyme activity has to be assessed for each preparation). 10 μl peptide substrate was added (1 μM final concentration, derived from 1 mM stock solution diluted 1:1000 in test buffer). After 90 min incubation at room temperature, the reaction was stopped by addition of 20 μl test buffer including 3 μg/ml Lys C and 0.075% Sodium Dodecyl Sulfate (SDS). After overnight incubation the fluorescence signal of TAMRA was measured (Victor 2 from Wallac, absorption 544 nm, emission 590 nm). […]

T1 sequence (Q13547 whole entry, species assumed): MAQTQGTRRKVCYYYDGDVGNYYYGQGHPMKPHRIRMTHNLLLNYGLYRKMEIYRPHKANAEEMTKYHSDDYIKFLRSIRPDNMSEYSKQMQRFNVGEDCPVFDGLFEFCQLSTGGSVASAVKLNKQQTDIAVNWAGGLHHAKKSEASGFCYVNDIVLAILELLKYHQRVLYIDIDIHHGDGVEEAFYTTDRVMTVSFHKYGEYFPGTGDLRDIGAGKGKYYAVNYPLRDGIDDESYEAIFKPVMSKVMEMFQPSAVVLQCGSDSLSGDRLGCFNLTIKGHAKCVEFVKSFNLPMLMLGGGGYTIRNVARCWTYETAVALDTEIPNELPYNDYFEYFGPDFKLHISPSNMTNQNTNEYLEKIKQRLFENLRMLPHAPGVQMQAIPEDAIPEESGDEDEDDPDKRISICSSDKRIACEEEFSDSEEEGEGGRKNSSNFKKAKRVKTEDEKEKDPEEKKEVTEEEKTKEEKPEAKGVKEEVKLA

Usually IC90 stands for the point of the concentration-response curve where the effect stands at 90%. In the case of `CC(NC(=O)c1ccc(C(=O)NO)s1)c1ccc(SC(F)(F)F)cc1` (centres unmarked) [Example 1, Thiophene-2,5-dicarboxylic acid 2-hydroxyamide 5-{[1-(4-trifluoromethylsulfanyl-phenyl)-ethyl]-amide}], the concentration for an effect of 90% (IC90) in the assay on HT-29 cells was 0.34 µM. By IC50 is commonly meant the concentration needed to halve the response being measured. On to `CC(NC(=O)c1ccc(C(=O)NO)s1)c1ccc(OC(F)(F)F)cc1` (centres unmarked) [Example 2-1, Thiophene-2,5-dicarboxylic acid 2-hydroxyamide 5-{[1-(4-trifluoromethoxy-phenyl)-ethyl]-amide}], for which, on recombinant HDAC-1, the IC50 is 0.00311 µM. With `CC(NC(=O)c1ccc(C(=O)NO)s1)c1cccc(SC(F)(F)F)c1` (centres unmarked) [Example 2-2, Thiophene-2,5-dicarboxylic acid 2-hydroxyamide 5-{[1-(3-trifluoromethylsulfanyl-phenyl)-ethyl]-amide}], the IC90 in the assay with HT-29 cells worked out at 0.21 µM. With `CSc1ccc(C(C)NC(=O)c2ccc(C(=O)NO)s2)cc1` (centres unmarked) [Example 2-3, Thiophene-2,5-dicarboxylic acid 2-hydroxyamide 5-{[1-(4-methylsulfanyl-phenyl)-ethyl]-amide}], the IC50 on recombinant HDAC-1 was 0.00226 µM.

As to `CC(NC(=O)c1ccc(C(=O)NO)s1)c1cccc(OC(F)(F)F)c1` (centres unmarked) [Example 3, Thiophene-2,5-dicarboxylic acid 2-hydroxyamide 5-{[1-(3-trifluoromethoxy-phenyl)-ethyl]-amide}], the IC90 with HT-29 cells is 0.22 µM.
